Patent US20180028507A1, “3-CARBAMOYLPHENYL-4-CARBOXAMIDE AND ISOPHTALAMIDE DERIVATIVES AS INHIBITORS OF THE WNT SIGNALLING PATHWAY” (Bayer Pharma Aktiengesellschaft, priority 2015, published 2018)

Legend:
[1] = tested on: HCT116 cells cotransfected with the FOP control vector (non-functional TCF elements); test: HCT116 FOPFlash control reporter assay (FOP control vector, luciferase); type: cell-based; conditions: Homo sapiens, HCT-116, 36 hours incubation, dilution series 50 μM to 15 nM, luciferase expression
Method: In a parallel approach, HCT116 cells were cotransfected with the FOP control vector and pcDNA3. The FOP vector is identical to the TOP construct, but it contains instead of functional TCF elements a randomized, non-functional sequence. For this transfection a stable transfected cell line was generated as well.
(§1) In preparation of the assay, the two cell lines were plated 24 hours before at 10000 cells per well of a 384 micro titre plate (MTP) in 30 μL growth medium. Selective inhibitory activity for small molecules on the mutated Wnt pathway was determined after parallel incubation of both (TOP and FOP) HCT116 reporter cell lines with a compound dilution series from 50 μM to 15 nM in steps of 3.16-fold dilutions in CAFTY buffer (130 mM NaCl, 5 mM KCl, 20 mM HEPES, 1 mM MgCl2, 5 mM NaHCO3, pH 7.4) containing 2 mM Ca^2+ and 0.01% BSA. The compounds were thereby serially prediluted in 100% DMSO and thereafter in addition 50 fold into the CAFTY compound dilution buffer (described above). From this dilution 10 μL were added to the cells in 30 μL growth medium and incubated for 36 hours at 37° C. and 5% CO2.

[2] = tested on: constitutive active colorectal cancer cell (CRC) Wnt pathway; test: HCT116 TOPFlash cellular reporter assay (Super TopFlash vector, luciferase); type: cell-based; conditions: Homo sapiens, HCT-116; HCT116 Super TopFlash reporter cells, 36 hours incubation, dilution series 50 μM to 15 nM, luciferase expression
Method: In order to discover and characterize small molecules which inhibit the constitutive active colorectal cancer cell (CRC) Wnt pathway, a cellular reporter assay was employed. The corresponding assay cell was generated by transfection of the colorectal cancer cell line HCT116 (ATCC, #CCL-247) with the Super TopFlash vector (Morin, Science 275, 1997, 1787-1790; Molenaar et al., Cell 86 (3), 1996, 391-399). The HCT116 cell line is cultivated at 37° C. and 5% CO2 in DMEM/F-12 (Life Technologies, #11320-074), supplemented with 2 mM glutamine, 20 mM HEPES, 1.4 mM pyruvate, 0.15% Na-bicarbonate and 10% foetal bovine serum (GIBCO, #10270), this cancer cell line is pathophysiological relevant since it carries a deletion of position S45 in the β-catenin gene, leading to constitutive active Wnt signaling. Stable transfectants were generated by cotransfection with pcDNA3 and selection of stable transfected cells with 1 mg/ml G418.
as §1

IC50 [1] [µM]	IC50 [2] [µM]	Compound
≥ 50	34	COc1ccc(C(=O)Nc2ccc(-c3ccccc3)cc2)cc1C(=O)NCc1ccc(N)nc1 [Example 61, N^3-[(6-aminopyridin-3-yl)methyl]-N^1-(bipheny-4-yl)-4-methoxyisophthalamide]
≥ 50	45	COc1ccc(C(=O)Nc2ccc(-c3ccccc3)cc2)cc1C(=O)Nc1cccnc1C [Example 62, N^1-(biphenyl-4-yl)-4-methoxy-N^3-(2-methylpyridin-3-yl)isophthalamide]
≥ 50	26.7	COc1ccc(C(=O)Nc2ccc(-c3ccccc3F)nc2)cc1C(=O)Nc1cncc(C)c1 [Example 63, N^1-[6-(2-fluorophenyl)pyridin-3-yl]-4-methoxy-N^3-(5-methylpyridin-3-yl)isophthalamide]
